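How tested: cells in 96-well plates exposed to compound for 48 hours at five concentrations. Here, GI50 denotes the concentration required for 50% inhibition of growth.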 The source made the active and inactive calls. No stated cut-off is given here; in the data, active = GI50 up to about 1.1 µM and inactive = higher.
Columns and labels:
Test in all cases: DTP human tumour cell line panel, 48 h
[1] = system: MOLT-4
[2] = system: OVCAR-5
[3] = system: SF-539
[4] = system: SF-295
[5] = system: HOP-62
[6] = system: EKVX
[7] = system: NCI-H23
[8] = system: CCRF-CEM
[9] = system: NCI-H460
[10] = system: OVCAR-3
[11] = system: COLO 205
[12] = system: HT-29
[13] = system: IGROV-1
[14] = system: NCI-H522
[15] = system: OVCAR-4
[16] = system: SNB-19
[17] = system: RXF 393

Measured: GI50

CCOC(=O)COS(=O)(=O)C(F)(F)F
inactive: [1] > 100 µM | [2] > 100 µM | [3] > 100 µM | [4] > 100 µM | [5] > 100 µM | [6] > 100 µM | [7] > 100 µM | [8] > 100 µM | [9] 41.9 µM | [10] > 100 µM | [11] 38 µM | [12] > 100 µM | [13] > 100 µM | [14] > 100 µM | [15] > 100 µM | [16] > 100 µM | [17] > 100 µM

O=C(Cc1ccccc1)N/N=C(/c1nc2ccc([N+](=O)[O-])cc2nc1O)C(O)c1ccco1 (stereo not given)
inactive: [1] > 100 µM | [2] > 100 µM | [3] > 100 µM | [4] > 100 µM | [5] > 100 µM | [6] > 100 µM | [7] > 100 µM | [8] 43.7 µM | [9] > 100 µM | [11] > 100 µM | [12] > 100 µM | [13] > 100 µM | [14] 12.6 µM | [15] > 100 µM

Nc1c(C(=O)Nc2ccccc2)[n+]([O-])c2ccccc2[n+]1[O-]
inactive: [1] 18.7 µM | [2] 22.5 µM | [3] 17.9 µM | [4] 20.9 µM | [5] 19.1 µM | [6] 25.9 µM | [7] 12.5 µM | [8] 19.1 µM | [9] 14.9 µM | [10] 17.3 µM | [11] 15.5 µM | [12] 16.6 µM | [13] 18.4 µM | [14] 2.09 µM | [15] 17.6 µM | [16] 15.5 µM

COC(=O)/C(=C\c1ccc(N(CCC#N)CCC#N)cc1)NC(=O)c1cc([N+](=O)[O-])ccc1Cl
inactive: [1] > 100 µM | [2] > 100 µM | [3] > 100 µM | [4] > 100 µM | [5] > 100 µM | [6] > 100 µM | [7] > 100 µM | [8] > 100 µM | [9] > 100 µM | [10] > 100 µM | [11] > 100 µM | [12] > 100 µM | [13] > 100 µM | [14] > 100 µM | [15] > 100 µM | [16] > 100 µM | [17] > 100 µM

O=C(Cn1ccnc1[N+](=O)[O-])NCc1ccc(F)cc1
inactive: [1] > 100 µM | [2] > 100 µM | [3] > 100 µM | [4] > 100 µM | [5] > 100 µM | [6] > 100 µM | [7] > 100 µM | [8] > 100 µM | [9] > 100 µM | [10] 33.5 µM | [11] > 100 µM | [12] > 100 µM | [13] > 100 µM | [14] > 100 µM | [15] > 100 µM | [16] > 100 µM | [17] > 100 µM

CN(C)CCCNC(=O)c1cccc2nc3ccccc3nc12
inactive: [1] 9.77 µM | [2] 20.9 µM | [3] 16.3 µM | [4] 19.5 µM | [5] 19.9 µM | [6] 27.3 µM | [7] 14.8 µM | [10] 19.4 µM | [11] 6.95 µM | [12] 6.75 µM | [13] 34.2 µM | [14] 26.6 µM | [15] 14.1 µM | [16] 19.8 µM | [17] 15.6 µM

O=C(/C=C/c1ccc(Cl)c(Cl)c1)c1ccc(F)cc1
inactive: [1] 15.8 µM | [2] 18.3 µM | [3] 20.8 µM | [4] 20.2 µM | [5] > 100 µM | [6] 27.4 µM | [7] 29.8 µM | [8] 4.42 µM | [9] 23.6 µM | [10] 18.6 µM | [11] 23.3 µM | [12] 13.3 µM | [13] 20.3 µM | [14] 4.45 µM | [15] 19.2 µM | [16] 16.8 µM

OC12c3ccccc3C1CCCCC2N1CCCC1 (stereo not given)
inactive: [1] > 100 µM | [4] > 100 µM | [5] > 100 µM | [6] > 100 µM | [7] > 100 µM | [8] > 100 µM | [9] > 100 µM | [11] > 100 µM | [12] > 100 µM | [14] > 100 µM | [15] > 100 µM | [16] > 100 µM | [17] > 100 µM

Clc1ccc(CCN2CCOCC2)c(Cl)c1
inactive: [1] > 100 µM | [2] > 100 µM | [3] > 100 µM | [4] > 100 µM | [5] > 100 µM | [6] > 100 µM | [7] > 100 µM | [8] > 100 µM | [9] > 100 µM | [11] > 100 µM | [12] > 100 µM | [13] > 100 µM | [14] > 100 µM | [15] > 100 µM | [16] > 100 µM | [17] 12.5 µM

Cc1cc(N(CCC#N)CCC#N)ccc1/C=C(/NC(=O)/C=C/c1ccccc1)C(N)=O
inactive: [1] > 100 µM | [2] > 100 µM | [3] > 100 µM | [4] > 100 µM | [5] > 100 µM | [6] > 100 µM | [7] > 100 µM | [8] > 100 µM | [9] > 100 µM | [10] > 100 µM | [11] > 100 µM | [12] > 100 µM | [13] > 100 µM | [14] 13.8 µM | [16] > 100 µM | [17] 4.19 µM

COCOCCC#CCO
inactive: [1] > 100 µM | [2] > 100 µM | [3] > 100 µM | [4] > 100 µM | [6] > 100 µM | [7] 32.4 µM | [8] > 100 µM | [9] > 100 µM | [10] > 100 µM | [12] > 100 µM | [13] > 100 µM | [14] 68.4 µM | [16] > 100 µM | [17] > 100 µM

Cc1nc2ccccc2c(=O)n1/N=C(\N=N\c1ccc(Cl)cc1)c1ccc(N(C)C)cc1
inactive: [1] 61.1 µM | [3] > 100 µM | [4] > 100 µM | [5] 66.4 µM | [6] > 100 µM | [7] 72.4 µM | [8] 81.5 µM | [9] 93.8 µM | [11] > 100 µM | [12] > 100 µM | [13] > 100 µM | [14] 38.7 µM | [16] 48 µM | [17] 80.4 µM

O=C1OCCC1(Cc1ccc(Cl)cc1)Cc1ccc(Cl)cc1
inactive: [1] > 100 µM | [2] > 100 µM | [4] 34 µM | [5] 31.3 µM | [6] > 100 µM | [7] 53.2 µM | [8] > 100 µM | [9] > 100 µM | [10] > 100 µM | [11] > 100 µM | [12] > 100 µM | [13] > 100 µM | [14] > 100 µM | [15] 36.2 µM | [16] 30 µM

Source: ChEMBL document CHEMBL1201862, “PubChem BioAssay data set” (2004)
